We go through 2 compounds from patent US10648917B2, “Luminescent compositions and applications thereof” (THE PENN STATE RESEARCH FOUNDATION, priority 2015, dated 2020).

Data set [1] has as its system NIH 3T3 mouse fibroblasts. Briefly: In vitro cytotoxicity, CCK-8 cell viability assay. As to conditions: for cell viability: 24 h. The class given is cell-based. The procedure: NIH 3T3 mouse fibroblasts (ATCC) were used as model cells for in vitro cytotoxicity evaluations. The cells were cultured in Dulbecco's modified eagle's medium (DMEM), which had been supplemented with 10% fetal bovine serum (FBS) and 1% penicillin streptomycin. The culture flasks were kept in an incubator maintained at 37° C., 5% CO2, and 95% relative humidity. For a typical cytotoxicity study, 3T3 cells were seeded with a density of 5×10^4 cells/ml. […] of cell suspension in DMEM was added to each well in a 96-well plate and then incubated for 24 h. The culture medium was changed to 100 μL of DMEM containing the CFDs with various concentrations and followed by another 24 h incubator. A CCK-8 cell viability assay was used for a quantitative assessment of the viable cells according to the manufacturer's protocol. Viability of cells was normalized to the control of tissue culture plates (n=5).
The in vitro toxicity of CFDs was evaluated by incubating them with NIH 3T3 mouse fibroblasts at different concentrations. […] Therefore, CFDs are generally biocompatible fluorescent compounds that can be used at a high dosage. […] The red fluorescence was relatively weak since CA-Cys has relatively weak red fluorescence emission.
(In general: Tetrazolium assays rely on reduction of a dye to a coloured formazan, in cell work by metabolically active cells.)

Data set [2] is described as follows: Fluorescence spectra, absorbance and quantum yield (spectrofluorometer, integration sphere). The class given is physicochemical. As to conditions: for Shifting (emission shifting with excitation wavelength): CFD dyes; for Φ (quantum yield) / λem (maximum emission wavelength) / λex (maximum excitation wavelength) / ϵ (extinction coefficiency): Table III.
The mark [3] stands for this setting: 2500 μg/ml, vs control (p<0.01).
Where [4] appears, read: Dianion protolytic state (physiological pH).

Where two headings read alike, the source gives them in different places.

Consider `CC(C(=O)O)N1C(=O)C=C(C(=O)O)CC1=O` (stereo not drawn) [CA-Ala], for which the cell viability result in data set [1] (1000 μg/ml, vs control) was “no significant decrease in cell viability”. Also, the cell viability result in data set [1] (setting [3]) is “significant decrease”. Moreover, in data set [2], the “Shifting (emission shifting with excitation wavelength)” value is listed as “Yes”, the “Φ (quantum yield)” value amounted to 21.2%, the “λem (maximum emission wavelength)” value worked out at 430 nm and the “λex (maximum excitation wavelength)” value is 361 nm. Moreover, the “ϵ (extinction coefficiency)” value in data set [2] stood at 79 M⁻¹ cm⁻¹. In addition, in data set [2] (in acetone (ε=20.7)), the band-shift effect entry is on record as “moderate”. Besides, the band-shift effect entry in data set [2] (in dichloromethane (ε=8.93)) was “minimal”. Further, the band-shift effect entry in data set [2] (in water (ε=80.1)) is “strongest”. For the same compound, in data set [2] (representative CFDs, Table I), the “Max. Em. Wavelength” value was determined as 430 nm, the “Max. Ex. Wavelength” value is on record as 361 nm and the “Quantum Yield” value worked out at 21.2%.
Take `O=C(O)c1cc2n(c(=O)c1)C(C(=O)O)CS2` (stereo not drawn) [CA-Cys]: the cell viability entry in data set [1] (1000 μg/ml, vs control) is on record as “no significant decrease in cell viability”. For the same compound, the cell viability entry in data set [1] (setting [3]) is on record as “significant decrease”. Also, the “dosage with in-vitro cytocompatibility” value in data set [1] (3T3 cell line) is listed as “up to 10.3 mM”. Further, in data set [2], the Quantum Yield is listed as ≤ 81%; the extinction coefficient is 8640 M⁻¹ cm⁻¹; the “Shifting (emission shifting with excitation wavelength)” value is “no fluorescence band shifting was observed and No”; the “Φ (quantum yield)” value is on record as 81.4%. Also, in data set [2], the “λem (maximum emission wavelength)” value turned out to be 445 nm, the “λex (maximum excitation wavelength)” value was determined as 364 nm and the “ϵ (extinction coefficiency)” value was determined as 8640 M⁻¹ cm⁻¹. In addition, in data set [2] (Anion protolytic state), the “Abs. Max” value was 354 nm, the Em. max was determined as 440 nm, the Exc. max came to 360 nm and the Stokes shift stood at 80 nm. In data set [2] (Anion protolytic state), the Φ is recorded as 67.24% and the ε turned out to be 7454 M⁻¹ cm⁻¹. Further, in data set [2] (Dianion protolytic state), the “Abs. Max” value came to 346 nm, the Em. max amounted to 418 nm and the Exc. max is 350 nm. Moreover, in data set [2] (setting [4]), the Stokes shift came to 67 nm, the Φ is recorded as 81.20% and the ε is ~8640 M⁻¹ cm⁻¹. In data set [2] (Neutral protolytic state), the “Abs. Max” value is given as 362 nm, the Em. max is listed as 445 nm, the Exc. max turned out to be 366 nm and the Stokes shift was 80 nm. Besides, in data set [2] (Neutral protolytic state), the Φ result was “Quenched” and the ε was ~8300 M⁻¹ cm⁻¹. In addition, the “quenching in organic solvents compared to water” value in data set [2] (dioxane, acetone, ethanol, isopropanol, DMSO) is “minimal quenching”. Besides, in data set [2] (representative CFDs, Table I), the “Max. Em. Wavelength” value amounted to 445 nm, the “Max. Ex. Wavelength” value was found to be 364 nm and the “Quantum Yield” value was determined as 81.4%.
